Test results reported in the NIST ThermoML archive (doi:10.1021/je600519p).
± gives the expanded uncertainty stated by the source.

Test: refractive index (Na D-line) (dimensionless); xn = mol fraction of the nth substance listed
Conditions: 101 kPa, Liquid

Structure (SMILES): CC(=O)c1ccccc1 [acetophenone] + CCOC(=O)OCC
- refractive index (293.15 K, x2 = 0.0511): 1.5269 ± 0.0013
- refractive index (293.15 K, x2 = 0.1014): 1.5201 ± 0.0013
- refractive index (293.15 K, x2 = 0.1501): 1.5134 ± 0.0013
- refractive index (293.15 K, x2 = 0.1996): 1.5065 ± 0.0013
- refractive index (293.15 K, x2 = 0.2465): 1.5001 ± 0.0013
- refractive index (293.15 K, x2 = 0.3041): 1.4919 ± 0.0013
- refractive index (293.15 K, x2 = 0.3467): 1.4858 ± 0.0013
- refractive index (293.15 K, x2 = 0.4001): 1.4781 ± 0.0013
- refractive index (293.15 K, x2 = 0.4507): 1.4707 ± 0.0013
- refractive index (293.15 K, x2 = 0.4888): 1.4651 ± 0.0013
- refractive index (293.15 K, x2 = 0.5506): 1.4558 ± 0.0013
- refractive index (293.15 K, x2 = 0.6038): 1.4477 ± 0.0012
- refractive index (293.15 K, x2 = 0.6498): 1.4406 ± 0.0012
- refractive index (293.15 K, x2 = 0.7104): 1.4312 ± 0.0012
- refractive index (293.15 K, x2 = 0.7513): 1.4247 ± 0.0012
- refractive index (293.15 K, x2 = 0.8078): 1.4158 ± 0.0012
- refractive index (293.15 K, x2 = 0.8522): 1.4086 ± 0.0012
- refractive index (293.15 K, x2 = 0.8993): 1.401 ± 0.0012
- refractive index (293.15 K, x2 = 0.9488): 1.3929 ± 0.0012
- refractive index (303.15 K, x2 = 0.0511): 1.5221 ± 0.0013
- refractive index (303.15 K, x2 = 0.1014): 1.5154 ± 0.0013
- refractive index (303.15 K, x2 = 0.1501): 1.5089 ± 0.0013
- refractive index (303.15 K, x2 = 0.1996): 1.5022 ± 0.0013
- refractive index (303.15 K, x2 = 0.2465): 1.4958 ± 0.0013
- refractive index (303.15 K, x2 = 0.3041): 1.4877 ± 0.0013
- refractive index (303.15 K, x2 = 0.3467): 1.4817 ± 0.0013
- refractive index (303.15 K, x2 = 0.4001): 1.474 ± 0.0013
- refractive index (303.15 K, x2 = 0.4507): 1.4666 ± 0.0013
- refractive index (303.15 K, x2 = 0.4888): 1.461 ± 0.0013
- refractive index (303.15 K, x2 = 0.5506): 1.4518 ± 0.0013
- refractive index (303.15 K, x2 = 0.6038): 1.4437 ± 0.0012
- refractive index (303.15 K, x2 = 0.6498): 1.4366 ± 0.0012
- refractive index (303.15 K, x2 = 0.7104): 1.4271 ± 0.0012
- refractive index (303.15 K, x2 = 0.7513): 1.4206 ± 0.0012
- refractive index (303.15 K, x2 = 0.8078): 1.4116 ± 0.0012
- refractive index (303.15 K, x2 = 0.8522): 1.4043 ± 0.0012
- refractive index (303.15 K, x2 = 0.8993): 1.3966 ± 0.0012
- refractive index (303.15 K, x2 = 0.9488): 1.3884 ± 0.0012
- refractive index (313.15 K, x2 = 0.0511): 1.5172 ± 0.0013
- refractive index (313.15 K, x2 = 0.1014): 1.5107 ± 0.0013
- refractive index (313.15 K, x2 = 0.1501): 1.5043 ± 0.0013
- refractive index (313.15 K, x2 = 0.1996): 1.4976 ± 0.0013
- refractive index (313.15 K, x2 = 0.2465): 1.4913 ± 0.0013
- refractive index (313.15 K, x2 = 0.3041): 1.4833 ± 0.0013
- refractive index (313.15 K, x2 = 0.3467): 1.4774 ± 0.0013
- refractive index (313.15 K, x2 = 0.4001): 1.4697 ± 0.0013
- refractive index (313.15 K, x2 = 0.4507): 1.4624 ± 0.0013
- refractive index (313.15 K, x2 = 0.4888): 1.4568 ± 0.0013
- refractive index (313.15 K, x2 = 0.5506): 1.4475 ± 0.0013
- refractive index (313.15 K, x2 = 0.6038): 1.4395 ± 0.0012
- refractive index (313.15 K, x2 = 0.6498): 1.4323 ± 0.0012
- refractive index (313.15 K, x2 = 0.7104): 1.4228 ± 0.0012
- refractive index (313.15 K, x2 = 0.7513): 1.4164 ± 0.0012
- refractive index (313.15 K, x2 = 0.8078): 1.4072 ± 0.0012
- refractive index (313.15 K, x2 = 0.8522): 1.3999 ± 0.0012
- refractive index (313.15 K, x2 = 0.8993): 1.3922 ± 0.0012
- refractive index (313.15 K, x2 = 0.9488): 1.3839 ± 0.0012
- refractive index (323.15 K, x2 = 0.0511): 1.5123 ± 0.0013
- refractive index (323.15 K, x2 = 0.1014): 1.506 ± 0.0013
- refractive index (323.15 K, x2 = 0.1501): 1.4998 ± 0.0013
- refractive index (323.15 K, x2 = 0.1996): 1.4932 ± 0.0013
- refractive index (323.15 K, x2 = 0.2465): 1.4869 ± 0.0013
- refractive index (323.15 K, x2 = 0.3041): 1.479 ± 0.0013
- refractive index (323.15 K, x2 = 0.3467): 1.4731 ± 0.0013
- refractive index (323.15 K, x2 = 0.4001): 1.4656 ± 0.0013
- refractive index (323.15 K, x2 = 0.4507): 1.4583 ± 0.0013
- refractive index (323.15 K, x2 = 0.4888): 1.4527 ± 0.0013
- refractive index (323.15 K, x2 = 0.5506): 1.4435 ± 0.0013
- refractive index (323.15 K, x2 = 0.6038): 1.4353 ± 0.0012
- refractive index (323.15 K, x2 = 0.6498): 1.4282 ± 0.0012
- refractive index (323.15 K, x2 = 0.7104): 1.4186 ± 0.0012
- refractive index (323.15 K, x2 = 0.7513): 1.4121 ± 0.0012
- refractive index (323.15 K, x2 = 0.8078): 1.4029 ± 0.0012
- refractive index (323.15 K, x2 = 0.8522): 1.3957 ± 0.0012
- refractive index (323.15 K, x2 = 0.8993): 1.3878 ± 0.0012
- refractive index (323.15 K, x2 = 0.9488): 1.3791 ± 0.0012

Structure (SMILES): CCOC(=O)OCC [diethyl carbonate] + CCCCCCO
- refractive index (293.15 K, x1 = 0.0502): 1.4168 ± 0.0013
- refractive index (293.15 K, x1 = 0.1123): 1.4152 ± 0.0013
- refractive index (293.15 K, x1 = 0.1499): 1.4143 ± 0.0013
- refractive index (293.15 K, x1 = 0.2103): 1.4125 ± 0.0013
- refractive index (293.15 K, x1 = 0.2508): 1.4111 ± 0.0013
- refractive index (293.15 K, x1 = 0.3121): 1.4089 ± 0.0013
- refractive index (293.15 K, x1 = 0.3576): 1.4071 ± 0.0013
- refractive index (293.15 K, x1 = 0.4113): 1.4049 ± 0.0013
- refractive index (293.15 K, x1 = 0.4632): 1.4028 ± 0.0013
- refractive index (293.15 K, x1 = 0.5111): 1.4008 ± 0.0012
- refractive index (293.15 K, x1 = 0.552): 1.3991 ± 0.0012
- refractive index (293.15 K, x1 = 0.6008): 1.3972 ± 0.0012
- refractive index (293.15 K, x1 = 0.6498): 1.3953 ± 0.0012
- refractive index (293.15 K, x1 = 0.7108): 1.3929 ± 0.0012
- refractive index (293.15 K, x1 = 0.7554): 1.3912 ± 0.0012
- refractive index (293.15 K, x1 = 0.8112): 1.3894 ± 0.0012
- refractive index (293.15 K, x1 = 0.8501): 1.3883 ± 0.0012
- refractive index (293.15 K, x1 = 0.9002): 1.3869 ± 0.0012
- refractive index (293.15 K, x1 = 0.9555): 1.3855 ± 0.0012
- refractive index (303.15 K, x1 = 0.0502): 1.4131 ± 0.0013
- refractive index (303.15 K, x1 = 0.1123): 1.4115 ± 0.0013
- refractive index (303.15 K, x1 = 0.1499): 1.4106 ± 0.0013
- refractive index (303.15 K, x1 = 0.2103): 1.4088 ± 0.0013
- refractive index (303.15 K, x1 = 0.2508): 1.4074 ± 0.0013
- refractive index (303.15 K, x1 = 0.3121): 1.4051 ± 0.0013
- refractive index (303.15 K, x1 = 0.3576): 1.4033 ± 0.0013
- refractive index (303.15 K, x1 = 0.4113): 1.4011 ± 0.0013
- refractive index (303.15 K, x1 = 0.4632): 1.3989 ± 0.0013
- refractive index (303.15 K, x1 = 0.5111): 1.3969 ± 0.0012
- refractive index (303.15 K, x1 = 0.552): 1.3952 ± 0.0012
- refractive index (303.15 K, x1 = 0.6008): 1.3931 ± 0.0012
- refractive index (303.15 K, x1 = 0.6498): 1.3911 ± 0.0012
- refractive index (303.15 K, x1 = 0.7108): 1.3887 ± 0.0012
- refractive index (303.15 K, x1 = 0.7554): 1.387 ± 0.0012
- refractive index (303.15 K, x1 = 0.8112): 1.3851 ± 0.0012
- refractive index (303.15 K, x1 = 0.8501): 1.3838 ± 0.0012
- refractive index (303.15 K, x1 = 0.9002): 1.3823 ± 0.0012
- refractive index (303.15 K, x1 = 0.9555): 1.3809 ± 0.0012
- refractive index (313.15 K, x1 = 0.0502): 1.4089 ± 0.0013
- refractive index (313.15 K, x1 = 0.1123): 1.4075 ± 0.0013
- refractive index (313.15 K, x1 = 0.1499): 1.4065 ± 0.0013
- refractive index (313.15 K, x1 = 0.2103): 1.4047 ± 0.0013
- refractive index (313.15 K, x1 = 0.2508): 1.4034 ± 0.0013
- refractive index (313.15 K, x1 = 0.3121): 1.4011 ± 0.0013
- refractive index (313.15 K, x1 = 0.3576): 1.3992 ± 0.0013
- refractive index (313.15 K, x1 = 0.4113): 1.3969 ± 0.0013
- refractive index (313.15 K, x1 = 0.4632): 1.3947 ± 0.0013
- refractive index (313.15 K, x1 = 0.5111): 1.3927 ± 0.0012
- refractive index (313.15 K, x1 = 0.552): 1.3909 ± 0.0012
- refractive index (313.15 K, x1 = 0.6008): 1.3888 ± 0.0012
- refractive index (313.15 K, x1 = 0.6498): 1.3867 ± 0.0012
- refractive index (313.15 K, x1 = 0.7108): 1.3842 ± 0.0012
- refractive index (313.15 K, x1 = 0.7554): 1.3825 ± 0.0012
- refractive index (313.15 K, x1 = 0.8112): 1.3805 ± 0.0012
- refractive index (313.15 K, x1 = 0.8501): 1.3792 ± 0.0012
- refractive index (313.15 K, x1 = 0.9002): 1.3776 ± 0.0012
- refractive index (313.15 K, x1 = 0.9555): 1.3762 ± 0.0012
- refractive index (323.15 K, x1 = 0.0502): 1.4049 ± 0.0013
- refractive index (323.15 K, x1 = 0.1123): 1.4036 ± 0.0013
- refractive index (323.15 K, x1 = 0.1499): 1.4026 ± 0.0013
- refractive index (323.15 K, x1 = 0.2103): 1.4007 ± 0.0013
- refractive index (323.15 K, x1 = 0.2508): 1.3994 ± 0.0013
- refractive index (323.15 K, x1 = 0.3121): 1.3971 ± 0.0013
- refractive index (323.15 K, x1 = 0.3576): 1.3953 ± 0.0013
- refractive index (323.15 K, x1 = 0.4113): 1.3931 ± 0.0013
- refractive index (323.15 K, x1 = 0.4632): 1.3909 ± 0.0013
- refractive index (323.15 K, x1 = 0.5111): 1.3887 ± 0.0012
- refractive index (323.15 K, x1 = 0.552): 1.3868 ± 0.0012
- refractive index (323.15 K, x1 = 0.6008): 1.3846 ± 0.0012
- refractive index (323.15 K, x1 = 0.6498): 1.3825 ± 0.0012
- refractive index (323.15 K, x1 = 0.7108): 1.3798 ± 0.0012
- refractive index (323.15 K, x1 = 0.7554): 1.3779 ± 0.0012
- refractive index (323.15 K, x1 = 0.8112): 1.3758 ± 0.0012
- refractive index (323.15 K, x1 = 0.8501): 1.3745 ± 0.0012
- refractive index (323.15 K, x1 = 0.9002): 1.3729 ± 0.0012
- refractive index (323.15 K, x1 = 0.9555): 1.3714 ± 0.0012
